Source: PMC11424460, “Inhibitory effects of calcium channel blockers nisoldipine and nimodipine on ivacaftor metabolism and their underlying mechanism” (Frontiers in Pharmacology, 2024)

These molecules were tested on ivacaftor metabolism in rat liver microsomes (RLM) (assay: Screening of 79 drugs (100 μM) for inhibition of ivacaftor metabolism in RLM incubation). Conditions: each drug 100 μM, 0.3 mg/mL RLM.
Format: in vitro ADME
Protocol: The supernatants were centrifuged at 100,000 × g for 1 h, and the pellets were resuspended with cold […] PBS. Protein concentrations were determined by Bradford Protein Assay Kit (Thermo Scientific, Waltham, MA, United States).
This system was made up of 200 μL of incubation solution consisting of 0.3 mg/mL RLM or 0.4 mg/mL HLM, 1.0 mM NADPH, pH 7.4 PBS and ivacaftor. […] The solution should be pre-incubated at 37°C for 5 min before adding NADPH. Following the addition of NADPH, the mixture should be incubated for 40 min. The reaction should then be stopped at −80°C. After the enzyme reaction was completed, 20 μL of 500 ng/mL IS solution and 400 μL acetonitrile (protein precipitating agent) were added to the mixture. The mixture was vortexed for 2 min and then centrifuged at 13,000 rpm for 10 min. After centrifugation, 100 μL of the supernatant was quantified using UPLC-MS/MS.
Each drug was used at a concentration of 100 μM as the inhibitor. The culture system was 200 μL and included 0.3 mg/mL RLM, 1.0 mM NADPH, PBS, ivacaftor, and inhibitor. The reaction procedure was the same as the enzyme reaction mentioned above Section 2.2.

Row | SMILES | Metabolic rate (Mean ± SD, % of control)
1 | O=C1C[C@@H](c2ccc(O)cc2)Oc2cc(O)cc(O)c21 [Naringenin] | 42.57 ± 2.14 % of control
2 | CCCCc1oc2ccc(NS(C)(=O)=O)cc2c1C(=O)c1ccc(OCCCN(CCCC)CCCC)cc1 [Dronedarone] | 4.76 ± 0.94 % of control
3 | O=c1c(O)c(-c2ccc(O)cc2)oc2cc(O)cc(O)c12 [Kaempferol] | 66.02 ± 4.43 % of control
4 | COc1ccc2cc1Oc1ccc(cc1)C[C@H]1c3cc(c(OC)cc3CCN1C)Oc1c(O)c(OC)cc3c1[C@H](C2)N(C)CC3 [Fangchinoline] | 29.41 ± 4.61 % of control
5 | CN/C(=N/CCSCc1nc[nH]c1C)NC#N [Cimetidine] | 62.59 ± 8.46 % of control
6 | CCOc1ccc(Cc2cc([C@]34OC[C@](CO)(O3)[C@@H](O)[C@H](O)[C@H]4O)ccc2Cl)cc1 [PF-04971729] | 92.72 ± 3.41 % of control
7 | O=c1c(O)c(-c2ccc(O)c(O)c2)oc2cc(O)cc(O)c12 [Quercetin] | 57.86 ± 5.58 % of control
8 | Cc1ccc(Sc2ccccc2N2CCNCC2)c(C)c1 [Vortioxetine] | 3.17 ± 0.50 % of control
9 | O=C1CCc2cc(OCCCCc3nnnn3C3CCCCC3)ccc2N1 [Cilostazol] | 13.12 ± 0.36 % of control
10 | COc1cc(C2Oc3cc([C@H]4Oc5cc(O)cc(O)c5C(=O)[C@@H]4O)ccc3OC2CO)ccc1O (some centres unmarked) [Silibinin] | 54.73 ± 1.11 % of control
11 | CC(=O)CC(c1ccccc1)c1c(O)c2ccccc2oc1=O (centres unmarked) [Warfarin] | 95.32 ± 3.41 % of control
12 | CC(C)=CC[C@@H](O)C1=CC(=O)c2c(O)ccc(O)c2C1=O [Shikonin] | 41.65 ± 3.13 % of control
13 | CCCCc1nc(Cl)c(CO)n1Cc1ccc(-c2ccccc2-c2nn[nH]n2)cc1 [Losartan] | 35.88 ± 1.19 % of control
14 | C[C@@H]1O[C@@H](OC[C@H]2O[C@@H](Oc3c(-c4ccc(O)c(O)c4)oc4cc(O)cc(O)c4c3=O)[C@H](O)[C@@H](O)[C@@H]2O)[C@H](O)[C@H](O)[C@H]1O [Rutin] | 91.63 ± 0.31 % of control
15 | [H]/N=C(/N)c1ccc(NCc2nc3cc(C(=O)N(CCC(=O)O)c4ccccn4)ccc3n2C)cc1 [Dabigatran] | 104.42 ± 27.66 % of control
16 | COc1ccc([C@@H]2CC(=O)c3c(O)cc(O)cc3O2)cc1O [Hesperetin] | 31.12 ± 2.75 % of control
17 | O=C(O)Cc1ccc(O)cc1 [2-(4-Hydroxyphenyl) acetic acid] | 101.32 ± 0.94 % of control
18 | C[C@@H]1O[C@@H](O[C@H]2[C@H](Oc3cc(O)c4c(c3)O[C@H](c3ccc(O)cc3)CC4=O)O[C@H](CO)[C@@H](O)[C@@H]2O)[C@H](O)[C@H](O)[C@H]1O [Naringin] | 100.87 ± 17.42 % of control
19 | COC(=O)Nc1c(N)nc(-c2nn(Cc3ccccc3F)c3ncc(F)cc23)nc1N [Vericiguat] | 76.32 ± 1.42 % of control
20 | CCCNCC(O)COc1ccccc1C(=O)CCc1ccccc1 (centres unmarked) [Propafenone] | 54.95 ± 0.92 % of control

Row | SMILES | Metabolic rate (Mean ± SD, % of control)
21 | O=C1C=CC[C@@H]2[C@H]3CCCN4CCC[C@@H](CN12)[C@@H]34 [Sophocarpine] | 93.46 ± 2.14 % of control
22 | COc1cc(/C=C/C(=O)CC(=O)/C=C/c2ccc(O)c(OC)c2)ccc1O [Curcumin] | 8.19 ± 0.34 % of control
23 | O=C1CCC[C@@H]2[C@H]3CCCN4CCC[C@@H](CN12)[C@@H]34 [Matrine] | 80.23 ± 12.45 % of control
24 | O=c1c(-c2ccc(O)cc2)coc2cc(O)cc(O)c12 [Genistein] | 50.39 ± 12.01 % of control
25 | COc1ccccc1Oc1c(NS(=O)(=O)c2ccc(C(C)(C)C)cc2)nc(-c2ncccn2)nc1OCCO [Bosentan] | 131.49 ± 2.21 % of control
26 | COc1ccccc1OCCNCC(O)COc1cccc2[nH]c3ccccc3c12 (centres unmarked) [Carvedilol] | 12.87 ± 0.57 % of control
27 | COC(=O)C1=C(C)NC(C)=C(C(=O)OC(C)(C)CN(C)CCC(c2ccccc2)c2ccccc2)C1c1cccc([N+](=O)[O-])c1 (centres unmarked) [Lercanidipine] | 26.70 ± 7.18 % of control
28 | O=C1CCC[C@@H]2[C@H]3CCCN4CCC[C@H](CN12)[C@@H]34 [Sophoridine] | 109.11 ± 5.90 % of control
29 | COc1ccc2cc1Oc1ccc(cc1)C[C@H]1c3cc(c(OC)cc3CCN1C)Oc1c(OC)c(OC)cc3c1[C@H](C2)N(C)CC3 [Tetrandrine] | 71.96 ± 16.27 % of control
30 | Oc1ccc(/C=C/c2cc(O)cc(O)c2)cc1 [Resveratrol] | 18.69 ± 0.46 % of control
31 | O=C(NC[C@H]1CN(c2ccc(N3CCOCC3=O)cc2)C(=O)O1)c1ccc(Cl)s1 [Rivaroxaban] | 85.62 ± 0.92 % of control
32 | CC(C)n1c(=O)cc(N[C@@H](C)c2ccccc2)[nH]c1=O [mavacamten] | 94.17 ± 0.21 % of control
33 | CCCc1nc2c(C)cc(-c3nc4ccccc4n3C)cc2n1Cc1ccc(-c2ccccc2C(=O)O)cc1 [Telmisartan] | 14.98 ± 1.00 % of control
34 | CSCCNc1nc(SCCC(F)(F)F)nc2c1ncn2[C@@H]1O[C@H](COP(=O)(O)OP(=O)(O)C(Cl)(Cl)P(=O)(O)O)[C@@H](O)[C@H]1O [cangrelor] | 105.13 ± 0.21 % of control
35 | COc1cc(-c2oc3cc(O)cc(O)c3c(=O)c2O)ccc1O [Isorhamnetin] | 65.68 ± 3.49 % of control
36 | O=c1cc(-c2ccccc2)oc2cc(O)cc(O)c12 [Chrysin] | 74.50 ± 20.73 % of control
37 | CN(C)[C@@H](CCOc1cccc2ccccc12)c1ccccc1 [Dapoxetine] | 19.76 ± 0.64 % of control
38 | COc1ccc(-n2nc(C(N)=O)c3c2C(=O)N(c2ccc(N4CCCCC4=O)cc2)CC3)cc1 [Apixaban] | 83.91 ± 3.91 % of control
39 | O=c1c(O)c(-c2cc(O)c(O)c(O)c2)oc2cc(O)cc(O)c12 [Myricetin] | 2.38 ± 0.15 % of control
40 | N[C@@H](CC(=O)N1CCn2c(nnc2C(F)(F)F)C1)Cc1cc(F)c(F)cc1F [Sitagliptin] | 97.11 ± 2.13 % of control

Row | SMILES | Metabolic rate (Mean ± SD, % of control)
41 | O=C(O[C@@H]1Cc2c(O)cc(O)cc2O[C@@H]1c1cc(O)c(O)c(O)c1)c1cc(O)c(O)c(O)c1 [(-)-Epigallocatechin gallate] | 72.21 ± 13.75 % of control
42 | CN1C(C(=O)Nc2ccccn2)=C(O)c2sc(Cl)cc2S1(=O)=O [Lornoxicam] | 79.39 ± 3.06 % of control
43 | CC(=O)Oc1cc2c(s1)CCN(C(C(=O)C1CC1)c1ccccc1F)C2 (centres unmarked) [Prasugrel] | 31.93 ± 1.49 % of control
44 | CC1(C)O[C@H]2CC(=O)OC[C@]23[C@H]2CC[C@@]4(C)[C@H](c5ccoc5)OC(=O)[C@H]5O[C@]54[C@]2(C)C(=O)C[C@@H]13 [Limonin] | 19.90 ± 0.36 % of control
45 | O=C(/C=C/C=C/c1ccc2c(c1)OCO2)N1CCCCC1 [Piperine] | 203.66 ± 9.93 % of control
46 | CC[C@H](C)C(=O)O[C@H]1C[C@@H](C)C=C2C=C[C@H](C)[C@H](CC[C@@H]3C[C@@H](O)CC(=O)O3)[C@H]21 [Lovastatin] | 17.75 ± 0.36 % of control
47 | COc1ccc([C@@H]2Sc3ccccc3N(CCN(C)C)C(=O)[C@@H]2OC(C)=O)cc1 [Dilthiazem] | 26.04 ± 1.00 % of control
48 | O=c1cc(-c2ccc(O)c(O)c2)oc2cc(O)cc(O)c12 [Luteolin] | 95.78 ± 7.92 % of control
49 | CCCCc1oc2ccccc2c1C(=O)c1cc(I)c(OCCN(CC)CC)c(I)c1 [Amiodarone] | 5.73 ± 0.85 % of control
50 | Cc1cccc(C)c1OCC(C)N (centres unmarked) [Mexiletine] | 95.32 ± 2.42 % of control
51 | O=c1cc(-c2ccc(O)cc2)oc2cc(O)cc(O)c12 [Apigenin] | 58.35 ± 2.14 % of control
52 | CC(C)N(CCCCOCC(=O)NS(C)(=O)=O)c1cnc(-c2ccccc2)c(-c2ccccc2)n1 [Selexipag] | 28.78 ± 2.21 % of control
53 | CCc1cccc2c3c([nH]c12)C(CC)(CC(=O)O)OCC3 (centres unmarked) [Etodolac] | 98.19 ± 1.07 % of control
54 | O=c1c(O)c(-c2ccc(O)c(O)c2)oc2cc(O)ccc12 [Fisetin] | 44.37 ± 1.28 % of control
55 | O=c1cc(-c2ccccc2)oc2cc(O)c(O)c(O)c12 [Baicalein] | 15.24 ± 0.00 % of control
56 | C=C[C@H]1C[N@@]2CC[C@H]1C[C@@H]2[C@@H](O)c1ccnc2ccc(OC)cc12 [Quinidine] | 37.44 ± 4.20 % of control
57 | CO[C@H]1O[C@@H]2O[C@@]3(C)CC[C@H]4[C@H](C)CC[C@@H]([C@H]1C)[C@@]24OO3 [Artemether] | 41.88 ± 3.81 % of control
58 | O=c1c(-c2ccc(O)cc2)coc2cc(O)ccc12 [Daidzein] | 105.78 ± 2.90 % of control
59 | CCOC(=O)C1=C(C)NC(C)=C(C(=O)OC)C1c1cccc([N+](=O)[O-])c1 (centres unmarked) [Nitrendipine] | 27.00 ± 0.21 % of control
